This is an account of results in patent US10858366B2 (priority 2016, dated 2020).

As a reminder, the pEC50 is −log10 of the EC50, conventionally taken in molar units. High values mean a small EC50, low ones a large EC50.

pEC50: −log10 of the molar value.

The assay has as its target RNP_CAL (PB2, PB1, PA, NP, influenza A Luciferase reporter in 293T cells) (Influenza A virus (strain swl A/California/04/2009 H1N1), UniProt C3W5S0). Nature of the assay: cell-based.
For the compound `CCc1cnc2n1C[C@H](C(c1ccccc1)c1ccccc1)n1ccc(=O)c(O)c1-2` [Example 9, (S)-6-benzhydryl-3-ethyl-11-hydroxy-5H-imidazo[1,2-a]pyrido[2,1-c]pyrazin-10(6H)-one], the pEC50 is 6.24.
The result for `O=c1cnn2c(c1O)-c1nccn1CC2C(c1ccc(Cl)cc1)c1ccc(Cl)cc1` (stereo not drawn) [Example 10, 6-(bis(4-chlorophenyl)methyl)-11-hydroxy-5H-imidazo[2′,1′:3,4]pyrazino[1,2-b]pyridazin-10(6H)-one] reads 6.49.
The result for `O=c1cnn2c(c1O)-c1nccn1CC2C(c1cccc(Cl)c1)c1cccc(Cl)c1` (stereo not drawn) [Example 11, 6-(bis(3-chlorophenyl)methyl)-11-hydroxy-5H-imidazo[2′,1′:3,4]pyrazino[1,2-b]pyridazin-10(6H)-one] reads 7.10; that for `O=c1cnn2c(c1O)-c1nccn1CC2C(c1ccc(F)cc1)c1ccc(F)cc1` (stereo not drawn) [Example 12, 6-(bis(4-fluorophenyl)methyl)-11-hydroxy-5H-imidazo[2′,1′:3,4]pyrazino[1,2-b]pyridazin-10(6H)-one], 6.10.
In the case of `Cc1cnc2n1C[C@H](C(c1ccccc1)c1ccccc1)n1ccc(=O)c(O)c1-2` [Example 13, (S)-6-benzhydryl-11-hydroxy-3-methyl-5H-imidazo[1,2-a]pyrido[2,1-c]pyrazin-10(6H)-one] it was 6.51; in that of `O=c1cnn2c(c1O)-c1nccn1C[C@@H]2C(c1cccc(Cl)c1)c1cccc(Cl)c1` [Example 15, (S)-6-(bis(3-chlorophenyl)methyl)-11-hydroxy-5H-imidazo [2′,1′:3,4] pyrazino [1,2-b]pyridazin-10(6H)-one], 7.60.
Consider `O=c1cnn2c(c1O)-c1nccn1C[C@H]2C(c1cccc(Cl)c1)c1cccc(Cl)c1` [Example 16, (R)-6-(bis(3-chlorophenyl)methyl)-11-hydroxy-5H-imidazo[2′,1′:3,4] pyrazino [1,2-b]pyridazin-10(6H)-one], for which the pEC50 was 6.09. This pEC50 is 1.51 log units lower than that of the compound before.
In the case of `O=c1cnn2c(c1O)-c1nccn1C[C@@H]2[C@@H](c1ccc(F)cc1)c1cccc(C(F)(F)F)c1` [Example 21, (S)-6-((S)-(4-fluorophenyl)(3-(trifluoromethyl)phenyl)methyl)-11-hydroxy-5,6-dihydro-10H-imidazo[2′,1′:3,4]pyrazino[1,2-b]pyridazin-10-one] it was 7.28; in that of `O=c1cnn2c(c1O)-c1nccn1C[C@@H]2C(c1ccc(F)cc1)c1ccc(F)cc1` [Example 22, (S)-6-(bis(4-fluorophenyl)methyl)-11-hydroxy-5,6-dihydro-10H-imidazo[2′,1′:3,4]pyrazino[1,2-b]pyridazin-10-one], 7.09.
The result for `O=c1cnn2c(c1O)-c1nccn1C[C@@H]2[C@@H](c1ccc(F)cc1)c1ccc(F)c(F)c1` [Example 25, (S)-6-((S)-(3,4-difluorophenyl)(4-fluorophenyl)methyl)-11-hydroxy-5H-imidazo[2′,1′:3,4]pyrazino[1,2-b]pyridazin-10(6H)-one] reads 7.25; that for `O=c1cnn2c(c1O)-c1nccn1C[C@@H]2[C@H](c1ccc(F)cc1)c1cccc(F)c1` [Example 26, (S)-6-((R)-(3-fluorophenyl)(4-fluorophenyl)methyl)-11-hydroxy-5,6-dihydro-10H-imidazo[2′,1′:3,4]pyrazino[1,2-b]pyridazin-10-one], 7.42.
For the compound `Cc1cc(F)ccc1[C@H](c1ccc(F)cc1)[C@H]1Cn2ccnc2-c2c(O)c(=O)cnn21` [Example 27, (S)-6-((S)-(4-fluoro-2-methylphenyl)(4-fluorophenyl)methyl)-11-hydroxy-5,6-dihydro-10H-imidazo[2′,1′:3,4]pyrazino[1,2-b]pyridazin-10-one], the negative-log EC50 (pEC50) was 7.30.
On to `CSc1cccc([C@H](c2ccc(F)cc2)[C@H]2Cn3ccnc3-c3c(O)c(=O)cnn32)c1` [Example 28, (S)-6-((S)-(4-fluorophenyl)(3-(methylthio)phenyl)methyl)-11-hydroxy-5,6-dihydro-10H-imidazo[2′,1′:3,4]pyrazino[1,2-b]pyridazin-10-one], for which the pEC50 was 7.09.
Compound `O=c1cnn2c(c1O)-c1nccn1C[C@@H]2[C@@H](c1ccc(F)cc1)c1ccccc1Cl` [Example 29, (S)-6-((S)-(2-chlorophenyl)(4-fluorophenyl)methyl)-11-hydroxy-5,6-dihydro-10H-imidazo[2′,1′:3,4]pyrazino[1,2-b]pyridazin-10-one] had a pEC50 of 7.14. This pEC50 and that of the compound before are within 0.2 log units of each other.
In the case of `O=c1cnn2c(c1O)-c1nccn1C[C@@H]2[C@@H](c1ccc(F)cc1)c1cccc(Cl)c1` [Example 31, (S)-6-((S)-(3-chlorophenyl)(4-fluorophenyl)methyl)-11-hydroxy-5,6-dihydro-10H-imidazo[2′,1′:3,4]pyrazino[1,2-b]pyridazin-10-one] it was 7.43; in that of `O=c1cnn2c(c1O)-c1nccn1C[C@@H]2[C@@H](c1ccc(F)cc1)c1ccc(C(F)(F)F)cc1` [Example 32, (S)-6-((R)-(4-fluorophenyl)(4-(trifluoromethyl)phenyl)methyl)-11-hydroxy-5,6-dihydro-10H-imidazo[2′,1′:3,4]pyrazino[1,2-b]pyridazin-10-one], 6.60.
`O=c1cnn2c(c1O)-c1nccn1C[C@@H]2[C@@H](c1ccc(F)cc1)c1cc(F)cc(F)c1` [Example 34, (S)-6-((S)-(3,5-difluorophenyl)(4-fluorophenyl)methyl)-11-hydroxy-5H-imidazo[2′,1′:3,4]pyrazino[1,2-b]pyridazin-10(6H)-one] gave a pEC50 of 7.60.
In the case of `Cc1ccccc1[C@H](c1ccc(F)cc1Br)[C@H]1Cn2ccnc2-c2c(O)c(=O)cnn21` [Example 35, (S)-6-((R)-(2-bromo-4-fluorophenyl)(o-tolyl)methyl)-11-hydroxy-5,6-dihydro-10H-imidazo[2′,1′:3,4]pyrazino[1,2-b]pyridazin-10-one] it was 7.30; in that of `O=c1cnn2c(c1O)-c1nccn1C[C@@H]2[C@H](c1cccc(F)c1)c1ccc(F)cc1Br` [Example 36, (S)-6-((R)-(2-bromo-4-fluorophenyl)(3-fluorophenyl)methyl)-11-hydroxy-5,6-dihydro-10H-imidazo[2′,1′:3,4]pyrazino[1,2-b]pyridazin-10-one], 7.57; in that of `CS(=O)(=O)c1cccc([C@H](c2ccc(F)cc2)[C@H]2Cn3ccnc3-c3c(O)c(=O)cnn32)c1` [Example 42, (S)-6-((S)-(4-fluorophenyl)(3-(methylsulfonyl)phenyl)methyl)-11-hydroxy-5,6-dihydro-10H-imidazo[2′,1′:3,4]pyrazino[1,2-b]pyridazin-10-one], 5.55.
Compound `N#Cc1ccccc1[C@H](c1ccc(F)cc1)[C@H]1Cn2ccnc2-c2c(O)c(=O)cnn21` [Example 44, 2-((S)-(4-fluorophenyl)((S)-11-hydroxy-10-oxo-5,6-dihydro-10H-imidazo[2′,1′:3,4]pyrazino[1,2-b]pyridazin-6-yl)methyl)benzonitrile] showed a pEC50 of 6.52. This pEC50 lies 0.97 log units higher than the previous one.
Regarding `N#Cc1ccc([C@H](c2ccc(F)cc2)[C@H]2Cn3ccnc3-c3c(O)c(=O)cnn32)cc1` [Example 45, 4-((R)-(4-fluorophenyl)((S)-11-hydroxy-10-oxo-5,6-dihydro-10H-imidazo[2′,1′:3,4]pyrazino[1,2-b]pyridazin-6-yl)methyl)benzonitrile], the pEC50 is 7.38. This pEC50 is 0.86 log units higher than that of the compound before.
The result for `O=c1cnn2c(c1O)-c1nc(Br)c(Br)n1C[C@@H]2C(c1ccc(F)cc1)c1ccc(F)cc1` [Example 48, (S)-6-(bis(4-fluorophenyl)methyl)-2,3-dibromo-11-hydroxy-5,6-dihydro-10H-imidazo[2′,1′:3,4]pyrazino[1,2-b]pyridazin-10-one] reads 5.37; that for `N#Cc1cnc2n1C[C@H](C(c1ccc(F)cc1)c1ccc(F)cc1)n1ncc(=O)c(O)c1-2` [Example 49, (S)-6-(bis(4-fluorophenyl)methyl)-11-hydroxy-10-oxo-5,6-dihydro-10H-imidazo[2′,1′:3,4]pyrazino[1,2-b]pyridazine-3-carbonitrile], 6.09.
The result for `O=c1cnn2c(c1O)-c1ncc(CO)n1C[C@@H]2C(c1ccc(F)cc1)c1ccc(F)cc1` [Example 50, (S)-6-(bis(4-fluorophenyl)methyl)-11-hydroxy-3-(hydroxymethyl)-5,6-dihydro-10H-imidazo[2′,1′:3,4]pyrazino[1,2-b]pyridazin-10-one] reads 7.00.
In the case of `Cc1ccccc1[C@H](c1ccc(F)cc1)[C@H]1Cn2c(CO)cnc2-c2c(O)c(=O)cnn21` [Example 51, (S)-6-((S)-(4-fluorophenyl)(o-tolyl)methyl)-11-hydroxy-3-(hydroxymethyl)-5,6-dihydro-10H-imidazo[2′,1′:3,4]pyrazino[1,2-b]pyridazin-10-one] it was 7.05; in that of `CC(O)c1cnc2n1C[C@H](C(c1ccccc1)c1ccccc1)n1ccc(=O)c(O)c1-2` (stereo partly drawn) [Example 55, (6S)-6-benzhydryl-11-hydroxy-3-(1-hydroxyethyl)-5H-imidazo[1,2-a]pyrido[2,1-c]pyrazin-10(6H)-one], 5.77; in that of `O=c1ccn2c(c1O)-c1ncc(CN3CCSCC3)n1C[C@@H]2C(c1ccccc1)c1ccccc1` [Example 62, (S)-6-benzhydryl-11-hydroxy-3-(thiomorpholinomethyl)-5,6-dihydro-10H-imidazo[1,2-a]pyrido[2,1-c]pyrazin-10-one], 6.19.
For the compound `O=c1ccn2c(c1O)-c1ncc(CNC3CCOCC3)n1C[C@@H]2C(c1ccccc1)c1ccccc1` [Example 65, (S)-6-benzhydryl-11-hydroxy-3-(((tetrahydro-2H-pyran-4-yl)amino)methyl)-5,6-dihydro-10H-imidazo[1,2-a]pyrido[2,1-c]pyrazin-10-one], the pEC50 was 5.46.
In the case of `C[C@@H](NCc1cnc2n1C[C@H](C(c1ccccc1)c1ccccc1)n1ccc(=O)c(O)c1-2)C(F)(F)F` [Example 66, (S)-6-benzhydryl-11-hydroxy-3-((((R)-1,1,1-trifluoropropan-2-yl)amino)methyl)-5,6-dihydro-10H-imidazo[1,2-a]pyrido[2,1-c]pyrazin-10-one] it was 6.51.
